The values below come from PMC11013010, “Serendipitous Identification of Azine Anticancer Agents Using a Privileged Scaffold Morphing Strategy” (Molecules, 2024).

One data set has as its system Huh7 cells. Briefly: Cytotoxicity assay (CellTiter Glo) on hepatocarcinoma cells. Format: cell-based. The settings on record: ratio CC50 FB789 / CC50 Huh7. On the procedure: (§1) Cell-based assays were carried out on the normal human fibroblast FB789 cell line (kindly provided by Elena Dell’Ambra from IRCCS Istituto Dermopatico dell’Immacolata, Rome), on the Huh7 hepatocarcinoma cell line (kindly provided by Istituto Toscano Tumori, Core Research Laboratory, Siena, Italy), on the Caco-2 adenocarcinoma colorectal cell line (ATCC catalog. n. HTB-37), on the suspension H9 cell line (repository code ARP0001, NIBSC Centre for AIDS reagents) and on the adherent TZM-bl cell line (repository code ARP5011, NIBSC Centre for AIDS reagents).
(§2) High glucose Dulbecco’s Modified Eagle Medium with sodium pyruvate and L-glutamine (DMEM; Euroclone) was used to grow Huh-7 and TZM-bl. Minimum Essential Eagle Medium (EMEM; Euroclone) was used to propagate Caco-2. DMEM and EMEM were supplemented with 10% fetal bovine serum (FBS; Euroclone) and 1% penicillin/streptomycin (Pen/Strep, Euroclone). The growth medium with a lower concentration of FBS (1%) was used for viral propagation, cytotoxic and antiviral experiments in adherent cell lines. […] All cell lines were grown at 37 °C in a 5% CO2 atmosphere in a humidified incubator.
(§3) The cytotoxicity of all investigated compounds was assayed in all cells lines as previously described. Briefly, confluent cells were treated with decreasing compound concentrations for 48h. The final DMSO concentration used was never greater than 0.5% v/v. Each experiment was performed in duplicate and repeated in two independent experiments. Cell viability was calculated using the CellTiter Glo 2.0 kit (Promega, Madison, WI, USA) and luminescence values signal obtained from cells treated with serial dilution of the compounds were measured through the GloMax® Discover Multi mode Microplate Reader (Promega) and elaborated with GraphPad PRISM software version 9.0 (La Jolla, San Diego, CA, USA). […] A non-toxic dose of each compound was used as the starting concentration in the antiviral activity assay.
In general terms: In ATP-based viability assays light output follows the ATP content of the culture.

Test in data set [1]: as above
It counts as cell-based. Conditions: human, Huh7 hepatocarcinoma cells, Huh7 hepatocarcinoma. The method, then: as §1, §2, §3

A short description of data set [2]: Cytotoxicity assay (CellTiter Glo) on normal fibroblasts. Format: cell-based, human. Conditions: human, FB789 normal fibroblast cells. The method, then:
as §1
The FB789 was cultured in Dulbecco’s Modified Eagle Medium (DMEM) and Ham’s F10 in a ratio of 50%, supplemented with 10% FBS, 2 mM L-glutamine, and 10,000 unit/mL penicillin/streptomycin.
as §3

The test system of another data set is H9 cells. The data set is described as follows: Cytotoxicity assay (CellTiter Glo) on lymphoma cells. The settings on record: ratio CC50 FB789 / CC50 H9.
Test in data set [3]: as above
Conditions: human.

A short description of data set [4]: Cytotoxicity assay (CellTiter Glo) on colon epithelial carcinoma cells. Conditions: human, Caco-2.
A further data set relates to Caco-2 cells. Described as above. Conditions: ratio CC50 FB789 / CC50 Caco-2.
The mark [5] stands for this setting: triazines 1-9, read-out 48 h, Cell-Titer Glo.
Where [6] appears, read: pyrimidines and pyridines, read out at 48 h, mean ± SD.

The structures appear in SMILES notation. A value given as a limit tells only on which side of the number the result lay.

Broadly, the CC50 is the concentration giving 50% cytotoxicity.

With `CC(=O)Nc1ccc(/C=N/Nc2nc(N3CCOCC3)nc(N3CCOCC3)n2)cc1` [Compound 2], in the data set with Huh7 cells (triazines 1-9), the “TSI Huh7” value was less than 0.7. Besides, the half-maximal cytotoxic concentration (CC50) at 48 h in data set [1] (triazines 1-9, read-out 48 h) was greater than 200 µM; in data set [2] (setting [5]) it was 134 ± 11 µM; in data set [3], greater than 100 µM; in data set [4], greater than 200 µM. Further, the “TSI H9” value with H9 cells (triazines 1-9) is less than 1.3. Further, the “TSI Caco-2” value in the data set on Caco-2 cells (triazines 1-9) is reported as less than 0.7.
Turning to `Cc1cccc(/C=N/Nc2nc(N3CCOCC3)nc(N3CCOCC3)n2)c1` [Compound 3], in the data set with Huh7 cells (triazines 1-9), the “TSI Huh7” value was 5.6. Also, the CC50 at 48 h in data set [1] (triazines 1-9, read-out 48 h) was 45 ± 10 µM; in data set [2] (setting [5]), 250 ± 10 µM; in data set [3], 74 ± 6.2 µM; in data set [4], 184 ± 11 µM. Also, in the data set on H9 cells (triazines 1-9), the “TSI H9” value is 3.4. Also, the “TSI Caco-2” value with Caco-2 cells (triazines 1-9) stood at 1.4.
As for `CC(=O)Nc1ccc(/C=N/Nc2nc(Nc3ccc(F)cc3)nc(N3CCOCC3)n2)cc1` [Compound 5], in the data set on Huh7 cells (triazines 1-9), the “TSI Huh7” value amounted to 0.6. The CC50 at 48 h in data set [1] (triazines 1-9, read-out 48 h) was found to be 45 ± 6 µM; in data set [2] (setting [5]), 27 ± 3 µM; in data set [3], 30 ± 5 µM; in data set [4], 70 ± 6 µM. For the same compound, the “TSI H9” value with H9 cells (triazines 1-9) worked out at 0.9. Also, the “TSI Caco-2” value in the data set on Caco-2 cells (triazines 1-9) was 0.4.
Take `Cc1cccc(/C=N/Nc2nc(Nc3ccc(F)cc3)nc(N3CCOCC3)n2)c1` [Compound 6]: the “TSI Huh7” value in the data set with Huh7 cells (triazines 1-9) came out at 2.1. For the same compound, the CC50 at 48 h in data set [1] (triazines 1-9, read-out 48 h) is 47 ± 5 µM; in data set [2] (setting [5]), 100 ± 8 µM; in data set [3], greater than 100 µM; in data set [4], 22 ± 2 µM. Also, the “TSI H9” value in the data set on H9 cells (triazines 1-9) is recorded as less than 1.0. In the data set on Caco-2 cells (triazines 1-9), the “TSI Caco-2” value is recorded as 4.5.
`Oc1ccccc1/C=N/Nc1nc(Nc2ccc(F)cc2)nc(Nc2ccc(F)cc2)n1` [Compound 7]: the “TSI Huh7” value in the data set on Huh7 cells (triazines 1-9) is 3.5. Further, the CC50 at 48 h was found to be 2 ± 0.4 µM in data set [1] (triazines 1-9, read-out 48 h); 7 ± 2 µM in data set [2] (setting [5]); 2 ± 1 µM in data set [3]; 0.8 ± 0.1 µM in data set [4]. Further, the “TSI H9” value with H9 cells (triazines 1-9) came out at 3.5. Besides, in the data set on Caco-2 cells (triazines 1-9), the “TSI Caco-2” value is on record as 8.8.
For the compound `CC(=O)Nc1ccc(/C=N/Nc2nc(Nc3ccc(F)cc3)nc(Nc3ccc(F)cc3)n2)cc1` [Compound 8], the “TSI Huh7” value in the data set on Huh7 cells (triazines 1-9) is given as less than 0.3. The CC50 at 48 h in data set [1] (triazines 1-9, read-out 48 h) is greater than 200 µM; in data set [2] (setting [5]), 57 ± 7 µM; in data set [3], greater than 100 µM; in data set [4] it was greater than 200 µM. In addition, the “TSI H9” value with H9 cells (triazines 1-9) was less than 0.6. Moreover, the “TSI Caco-2” value in the data set on Caco-2 cells (triazines 1-9) is reported as less than 0.3.
For `Cc1cccc(/C=N/Nc2nc(Nc3ccc(F)cc3)nc(Nc3ccc(F)cc3)n2)c1` [Compound 9], the CC50 at 48 h in data set [1] (triazines 1-9, read-out 48 h) was greater than 200 µM; in data set [2] (setting [5]) it was 50 ± 5 µM; in data set [3], greater than 100 µM; in data set [4], 200 µM.
In the case of `Oc1ccccc1/C=N/Nc1cc(N2CCOCC2)nc(N2CCOCC2)n1` [Compound 14a], the CC50 at 48 h in data set [1] (setting [6]) was 82 ± 6 µM; in data set [2] (setting [6]), 30 ± 6 µM; in data set [3], greater than 100 µM; in data set [4], 84 ± 7 µM.
As to `Cc1cccc(/C=N/Nc2cc(N3CCOCC3)nc(N3CCOCC3)n2)c1` [Compound 14b], the CC50 at 48 h worked out at 8 ± 4 µM in data set [1] (setting [6]), 9 ± 1 µM in data set [2] (setting [6]), 14 ± 7 µM in data set [3] and 11 ± 2 µM in data set [4]. Further, the “TSI Caco-2” value with Caco-2 cells (pyrimidines and pyridines) is listed as 0.8.
Consider `Cc1cccc(/C=N/Nc2cc(Nc3ccc(F)cc3)nc(N3CCOCC3)n2)c1` [Compound 21b], for which the CC50 at 48 h in data set [1] (setting [6]) is 67 ± 23 µM; in data set [2] (setting [6]), 95 ± 1 µM; in data set [3], greater than 100 µM; in data set [4] it was 113 ± 4 µM. The “TSI H9” value with H9 cells (pyrimidines and pyridines) is given as less than 1.0. Moreover, in the data set on Caco-2 cells (pyrimidines and pyridines), the “TSI Caco-2” value worked out at 0.8.
Consider `Oc1ccccc1/C=N/Nc1cc(N2CCOCC2)nc(N2CCOCC2)c1` [Compound 27a], for which the CC50 at 48 h was 44 ± 5 µM in data set [1] (setting [6]), 11 ± 3 µM in data set [2] (setting [6]), 76 ± 4 µM in data set [3] and 29 ± 2 µM in data set [4].
For the compound `Cc1cccc(/C=N/Nc2cc(N3CCOCC3)nc(N3CCOCC3)c2)c1` [Compound 27b], the CC50 at 48 h in data set [1] (setting [6]) is 39 ± 3 µM; in data set [2] (setting [6]) it was 81 ± 2 µM; in data set [3], 50 ± 4 µM; in data set [4], 30 ± 2 µM. Further, the “TSI Caco-2” value in the data set with Caco-2 cells (pyrimidines and pyridines) is 2.7.
Turning to `Oc1ccccc1/C=N/Nc1cc(Nc2ccc(F)cc2)nc(Nc2ccc(F)cc2)c1` [Compound 33a], the “TSI Huh7” value with Huh7 cells (pyrimidines and pyridines) is 0.02. Moreover, the CC50 at 48 h amounted to 18 ± 5 µM in data set [1] (setting [6]), 0.3 ± 0.3 µM in data set [2] (setting [6]), 43 ± 9 µM in data set [3] and 12 ± 4 µM in data set [4]. Further, in the data set with H9 cells (pyrimidines and pyridines), the “TSI H9” value is given as 0.01. The “TSI Caco-2” value in the data set on Caco-2 cells (pyrimidines and pyridines) is on record as 0.03.
Take `Oc1ccccc1/C=N/Nc1cc(Nc2ccc(F)cc2)nc(N2CCOCC2)c1` [Compound 38a]: in the data set on Huh7 cells (pyrimidines and pyridines), the “TSI Huh7” value was 0.1. The CC50 at 48 h worked out at 24 ± 14 µM in data set [1] (setting [6]), 3 ± 1 µM in data set [2] (setting [6]), 37 ± 2 µM in data set [3] and 19 ± 0.1 µM in data set [4]. In addition, in the data set with H9 cells (pyrimidines and pyridines), the “TSI H9” value is 0.1. Besides, the “TSI Caco-2” value with Caco-2 cells (pyrimidines and pyridines) was 0.2.
